Results on 1 compound are retold here after paper PMC11677465, “Development of a PET Probe Targeting Bromodomain and Extra-Terminal Proteins for In Vitro and In Vivo Visualization” (Pharmaceuticals, 2024).

This assay addresses T1, BRD4 (Homo sapiens, UniProt O60885).
T1 construct: BD1 (BRD4(1), first bromodomain)
Kind of assay: BROMOscan bromodomain competition binding assay with qPCR readout.

As to `COc1cc2c(cc1-c1c(C)nn(C)c1C)ncc1nc(C)n([C@H](C)c3ccccc3)c12` [YL10, (R)-8-methoxy-2-methyl-1-(1-phenylethyl)-7-(1,3,5-trimethyl-1H-pyrazol-4-yl)-1H-imidazo[4,5-c]quinoline], binding was put at a Kd of 480 nM. In other words, the sub-micromolar range.
